Tested on: SHP-1
Experiment: SHP-1 phosphorylation in primary patient AML blasts (Western blot)
Type: cell-based, human
Conditions: collagen alone
Procedure: FIGS. 4A-4O show the collagen matrix is vital to LAIR-1 induced AML cell death. (FIGS. 4A-C). Flow cytometry quantification of primary live, dead, or apoptotic total blood leukocytes after ex vivo treatment with 10 μg/mL IgG isotype control (gray) or LAIR-1 mAb (red) in the presence (FIG. 4A) or absence (FIG. 4B) of exogenous collagen, or (FIG. 4C), CD451^Lo SSC^Lo blast cells in the presence of isotype control or LAIR-1 mAb. N=3 technical replicates. […] Each dot represents an individual donor. Red shading highlights surface expression >20000 arbitrary units. Blue shading highlights expression <20000 units. Line represents simple linear regression. […] N=4-7 donors. […] Mean pixel density from Western blotting normalized to isotype control condition and graphed relative to total SHP-1. N=3 technical replicates. […] FIGS. 4M and 4N) 4E-BP1 expression as measured by Lumit assay (FIG. 4M) or cleaved caspase-7 as measured by Western blot (FIG. 4N) of cells treated as shown in FIGS. 4I-4K. […] P values calculated by Student's t test. […]
For assessment of signaling in healthy cells, human monocytes were isolated from PBMCs from two donors using a StemCell monocyte isolation kit (StemCell, Vancouver, BC). […] Data were quantified using FIJI (NIH, MD).

Substance: collagen: plate-coated human Collagen I, LAIR-1 ligand, mimics an extracellular matrix [reference compound]
- pSHP-1 relative to control: limited increase

— patent US20240352121A1, “LAIR-1 AGONISTIC ANTIBODIES AND METHODS OF USE THEREOF” (NEXTCURE, INC., priority 2023, published 2024)
